Target: T1, Mdm2/p53 binding (Homo sapiens, UniProt Q00987, L33E)
T1 construct: having Mdm2 amino acids at positions 25 to 108
Experiment: Mdm2/p53 binding assay (HTRF, His-p53 / GST-Mdm2)
Settings: His-p53 (aa 1-132) and GST-Mdm2 (aa 25-108, L33E), 6.25 nM each; 25° C., 1 hour
Description: Next, a test compound was diluted with protein buffer solution containing 10% DMSO, and this test compound dilution was added in an amount of 4 μL/well to the plate.
These dilutions were added in an amount of 8 μL/well (total reaction solution volume: 20 μl/well). Then, the plate was left at 25° C. for 1 hour.
C (correction factor)=(A−BI)/D
The R value calculated from the well supplemented with His-p53, GST-Mdm2, the test compound, and each antibody was defined as R (sample). The R value calculated from the well supplemented with His-p53, GST-Mdm2, and each antibody but without the test compound was defined as R (control). The R value calculated from the well supplemented with GST-Mdm2, the test compound, and each antibody but without His-p53 was defined as R (background). T/C was calculated from the formula shown below. An IC50 value for Mdm2/p53 binding was calculated by sigmoid fitting using Prism (GraphPad Software).
T/C=(R (sample)−R (background))/(R (control)−R (background))

T1 sequence (Q00987 25-108 L33E, species assumed): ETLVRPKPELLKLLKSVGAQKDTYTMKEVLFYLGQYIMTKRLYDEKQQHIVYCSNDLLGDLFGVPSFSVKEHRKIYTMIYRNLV

Structure (SMILES) | IC50 [µM]
CC(C)C1=C(C(=O)N2[C@H](C)CC[C@H]2C(=O)N2CCN(CCO)[C@H](C)C2)SC2=N[C@@](C)(c3ccc(Cl)nc3)[C@@H](c3ccc(Cl)c(F)c3)N21 [Example 260, 2-{(2R)-4-[(5R)-1-{[(5R,6S)-5-(4-chloro-3-fluorophenyl)-6-(6-chloropyridin-3-yl)-3-isopropyl-6-methyl-5,6-dihydroimidazo[2,1-b][1,3]thiazol-2-yl]carbonyl}-5-methyl-L-prolyl]-2-methylpiperazin-1-yl}ethanol] | 0.015
CC(C)C1=C(C(=O)N2CCC[C@H]2c2n[nH]c(=O)o2)SC2=N[C@@](C)(c3ccc(Cl)cc3)[C@@H](c3ccc(Cl)cc3)N21 [Example 89, 5-((2S)-1-{[(5R,6S)-5,6-Bis(4-chlorophenyl)-3-isopropyl-6-methyl-5,6-dihydroimidazo[2,1-b][1,3]thiazol-2-yl]carbonyl}pyrrolidin-2-yl)-1,3,4-oxadiazol-2(3H)-one] | 0.143
CC(=O)N(C)C[C@H](C)N(C)C(=O)C1=C(C(C)C)N2C(=N[C@@](C)(c3ccc(Cl)cc3)[C@H]2c2ccc(Cl)cc2)S1 [Example 74, (5R,6S)—N-{(1S)-2-[Acetyl(methyl)amino]-1-methylethyl}-5,6-bis(4-chlorophenyl)-3-isopropyl-N,6-dimethyl-5,6-dihydroimidazo[2,1-b][1,3]thiazole-2-carboxamide] | 0.023
CC(C)C1=C(C(=O)N(C)C)SC2=N[C@@](C)(c3ccc(Cl)cc3)[C@@H](c3ccc(Cl)cc3)N21 [Example 39, (5R,6S)-5,6-Bis(4-chlorophenyl)-3-isopropyl-N,N,6-trimethyl-5,6-dihydroimidazo[2,1-b][1,3]thiazole-2-carboxamide] | 0.051
CC[C@@H]1CC[C@@H](C(=O)N2CCN(C(C)=O)[C@H](C)C2)N1C(=O)C1=C(C(C)C)N2C(=N[C@@](C)(c3ccc(Cl)cc3)[C@H]2c2ccc(Br)cc2)S1 [Example 155, (5R,6S)-2-{[(2S,5R)-2-{[(3R)-4-Acetyl-3-methylpiperazin-1-yl]carbonyl}-5-ethylpyrrolidin-1-yl]carbonyl}-5-(4-bromophenyl)-6-(4-chlorophenyl)-3-isopropyl-6-methyl-5,6-dihydroimidazo[2,1-b][1,3]thiazole] | 0.03
CCCCC[C@]1(C)N=C2SC(C(=O)N3CCC[C@H]3C(=O)N(C)C)=C(C(C)C)N2[C@@H]1c1ccc(Cl)cc1 (relative stereo) [Example 99 (Cis-Isomer), 1-{[(5R*,6S*)-5-(4-chlorophenyl)-3-isopropyl-6-methyl-6-pentyl-5,6-dihydroimidazo[2,1-b][1,3]thiazol-2-yl]carbonyl}-N,N-dimethyl-L-prolinamide] | 0.194
CC(C)C1=C(C(=O)N2CCC[C@H]2C(=O)N2CCC[C@H]2C(=O)O)SC2=N[C@@](C)(c3ccc(Cl)cc3)[C@@H](c3ccc(Cl)cc3)N21 [Example 68, 1-{[(5R,6S)-5,6-Bis(4-chlorophenyl)-3-isopropyl-6-methyl-5,6-dihydroimidazo[2,1-b][1,3]thiazol-2-yl]carbonyl}-L-prolyl-L-proline] | 0.046
CC(C)C1=C(C(=O)N2[C@H](C)CC[C@H]2C(=O)N2CCN(C)[C@H](C)C2)SC2=N[C@@](C)(c3ccc(Cl)cc3)[C@@H](c3ccc(Cl)c(F)c3)N21 [Example 167, (5R,6S)-5-(4-Chloro-3-fluorophenyl)-6-(4-chlorophenyl)-2-{[(2S,5R)-2-{[(3R)-3,4-dimethylpiperazin-1-yl]carbonyl}-5-methylpyrrolidin-1-yl]carbonyl}-3-isopropyl-6-methyl-5,6-dihydroimidazo[2,1-b][1,3]thiazole] | 0.01
CNc1cc([C@]2(C)N=C3SC(C(=O)N4CCC[C@H]4C(=O)N4CCN(C)CC4)=C(C(C)C)N3[C@@H]2c2ccc(Cl)cc2)ccc1Cl [Example 102] | 0.08
CC[C@@H]1CC[C@@H](C(=O)N2C[C@@H](C)N[C@@H](C)C2)N1C(=O)C1=C(C(C)C)N2C(=N[C@@](C)(c3ccc(Cl)cc3)[C@H]2c2ccc(Cl)cc2)S1 [Example 105, (5R,6S)-5,6-Bis(4-chlorophenyl)-2-[((2S,5R)-2-{[(3R,5S)-3,5-dimethylpiperazin-1-yl]carbonyl}-5-ethylpyrrolidin-1-yl)carbonyl]-3-isopropyl-6-methyl-5,6-dihydroimidazo[2,1-b][1,3]thiazole] | 0.018

The remaining compounds from weak to strong by IC50, led by results:

IC50 [µM] | Structure (SMILES)
0.135 | CC(C)C1=C(C(=O)N2CC[C@H]2C(=O)N(C)C)SC2=N[C@@](C)(c3ccc(Cl)cc3)[C@@H](c3ccc(Cl)cc3)N21 [Example 93, (2S)-1-{[(5R,6S)-5,6-Bis(4-chlorophenyl)-3-isopropyl-6-methyl-5,6-dihydroimidazo[2,1-b][1,3]thiazol-2-yl]carbonyl}-N,N-dimethylazetidine-2-carboxamide]
0.087 | CC(C)C1=C(CN2CCNC(=O)C2)SC2=NC(C)(c3ccc(Cl)cc3)C(c3ccc(Cl)cc3)N21 (racemic) [Example 18, 4-{[(5R*,6S*)-5,6-Bis(4-chlorophenyl)-3-isopropyl-6-methyl-5,6-dihydroimidazo[2,1-b][1,3]thiazol-2-yl]methyl}piperazin-2-one]
0.084 | CC(C)C1=C(C(=O)N(C)[C@H]2C[C@@H](O)C2)SC2=N[C@@](C)(c3ccc(Cl)cc3)[C@@H](c3ccc(Cl)cc3)N21 [Example 164, (5R,6S)-5,6-Bis(4-chlorophenyl)-N-(cis-3-hydroxycyclobutyl)-3-isopropyl-N,6-dimethyl-5,6-dihydroimidazo[2,1-b][1,3]thiazole-2-carboxamide]
0.076 | CC(C)C1=C(C(=O)N(C)C)SC2=N[C@@](C)(c3ccc(Cl)nc3)[C@@H](c3ccc(Cl)cc3)N21 [Example 220, (5R,6S)-5-(4-Chlorophenyl)-6-(6-chloropyridin-3-yl)-3-isopropyl-N,N,6-trimethyl-5,6-dihydroimidazo[2,1-b][1,3]thiazole-2-carboxamide]
0.029 | CC(=O)N1CCN(C(=O)CN(CC(C)C)C(=O)C2=C(C(C)C)N3C(=N[C@@](C)(c4ccc(Cl)cc4)[C@H]3c3ccc(Cl)cc3)S2)CC1 [Example 88, (5R,6S)—N-[2-(4-Acetylpiperazin-1-yl)-2-oxoethyl]-5,6-bis(4-chlorophenyl)-N-isobutyl-3-isopropyl-6-methyl-5,6-dihydroimidazo[2,1-b][1,3]thiazole-2-carboxamide]
0.019 | CC(C)C1=C(C(=O)N2[C@H](C)CC[C@H]2C(=O)N2CCN(CCO)[C@H](C)C2)SC2=N[C@@](C)(c3ccc(Cl)cc3)[C@@H](c3ccc(Cl)cc3)N21 [Example 204, 2-{(2R)-4-[(5R)-1-{[(5R,6S)-5,6-Bis(4-chlorophehyl)-3-isopropyl-6-methyl-5,6-dihydroimidazo[2,1-b][1,3]thiazol-2-yl]carbonyl}-5-methyl-L-prolyl]-2-methylpiperazin-1-yl}ethanol]
0.013 | CC(C)C1=C(C(=O)N2[C@H](C)CC[C@H]2C(=O)N2C[C@@H](N)[C@H](F)C2)SC2=N[C@@](C)(c3ccc(Cl)cc3)[C@@H](c3ccc(Cl)cc3)N21 [Example 240, (3R,4R)-1-[(5R)-1-{[(5R,6S)-5,6-Bis(4-chlorophenyl)-3-isopropyl-6-methyl-5,6-dihydroimidazo[2,1-b][1,3]thiazol-2-yl]carbonyl}-5-methyl-L-prolyl]-4-fluoropyrrolidin-3-amine]
0.013 | CC(C)C1=C(C(=O)N2[C@H](C)CC[C@H]2C(=O)N2CCN(C)[C@H](C)C2)SC2=N[C@@](C)(c3ccc(Cl)cc3)[C@@H](c3ccc(C(F)(F)F)cc3)N21 [Example 180, (5R,6S)-6-(4-Chlorophenyl)-2-{[(2S,5R)-2-{[(3R)-3,4-dimethylpiperazin-1-yl]carbonyl}-5-methylpyrrolidin-1-yl]carbonyl}-3-isopropyl-6-methyl-5-[4-(trifluoromethyl)phenyl]-5,6-dihydroimidazo[2,1-b][1,3]thiazole]
0.012 | CC(C)C1=C(C(=O)N2CCC[C@H]2COC2CCN(C)CC2)SC2=N[C@@](C)(c3ccc(Cl)cc3)[C@@H](c3ccc(Cl)cc3)N21 [Example 211, (5R,6S)-5,6-Bis(4-chlorophenyl)-3-isopropyl-6-methyl-2-{[(2S)-2-{[(1-methylpiperidin-4-yl)oxy]methyl}pyrrolidin-1-yl]carbonyl}-5,6-dihydroimidazo[2,1-b][1,3]thiazole]
0.004 | CC(C)C1=C(C(=O)N(C(C)C)[C@H]2C[C@H](N(C)C)C2)SC2=N[C@@](C)(c3ccc(Cl)cc3)[C@@H](c3ccc(Cl)cc3)N21 [Example 219, (5R,6S)-5,6-Bis(4-chlorophenyl)-N-[trans-3-(dimethylamino)cyclobutyl]-N,3-diisopropyl-6-methyl-5,6-dihydroimidazo[2,1-b][1,3]thiazole-2-carboxamide]
